Numbers after ± are expanded uncertainties. Each block holds one compound with its values, some of them ahead of it.
Assay: activity coefficient (dimensionless); of the first substance listed, at infinite dilution; xn = mol fraction of the nth substance listed
Conditions: Liquid, Chromatography, x1 = 0

Structure (SMILES): CCCC [butane] + CCCO
- activity coefficient (260.05 K): 5.17 ± 0.23
- activity coefficient (280.05 K): 5.06 ± 0.22
- activity coefficient (299.99 K): 5.03 ± 0.22
- activity coefficient (320.05 K): 4.88 ± 0.22

Structure (SMILES): C=CC=C [1,3-butadiene] + CCCO
- activity coefficient (260.02 K): 4.2 ± 0.19
- activity coefficient (280.03 K): 4.15 ± 0.18
- activity coefficient (299.99 K): 4.1 ± 0.18
- activity coefficient (320.09 K): 4.06 ± 0.18
- activity coefficient (340.06 K): 3.98 ± 0.18

Structure (SMILES): C/C=C/C [(E)-2-butene] + CCCO
- activity coefficient (260.02 K): 4.2 ± 0.19
- activity coefficient (280.03 K): 4.15 ± 0.18
- activity coefficient (299.99 K): 4.1 ± 0.18
- activity coefficient (320.09 K): 4.06 ± 0.18
- activity coefficient (340.06 K): 3.98 ± 0.18

Structure (SMILES): CC(C)C [2-methylpropane] + CCCO
- activity coefficient (259.98 K): 5.48 ± 0.24
- activity coefficient (279.94 K): 5.37 ± 0.24
- activity coefficient (300.16 K): 5.24 ± 0.23
- activity coefficient (320 K): 5.14 ± 0.23
- activity coefficient (339.92 K): 5.05 ± 0.22

Structure (SMILES): C=C(C)C [2-methylpropene] + CCCO
- activity coefficient (259.91 K): 4.09 ± 0.18
- activity coefficient (279.95 K): 4.08 ± 0.18
- activity coefficient (299.94 K): 4.04 ± 0.18
- activity coefficient (320.06 K): 4 ± 0.18
- activity coefficient (340.16 K): 3.94 ± 0.17

The next lines start with the values.

- activity coefficient (259.98 K): 4.6 ± 0.2
- activity coefficient (279.96 K): 4.62 ± 0.2
- activity coefficient (299.96 K): 4.64 ± 0.2
- activity coefficient (320.03 K): 4.61 ± 0.2
- activity coefficient (339.95 K): 4.56 ± 0.2
Structure (SMILES): CCC [propane] + CCCO

- activity coefficient (260.03 K): 4.13 ± 0.18
- activity coefficient (280.04 K): 4.12 ± 0.18
- activity coefficient (299.98 K): 4.11 ± 0.18
- activity coefficient (320.03 K): 4.05 ± 0.18
- activity coefficient (340 K): 4.01 ± 0.18
Structure (SMILES): C=CCC [1-butene] + CCCO

- activity coefficient (259.92 K): 3.58 ± 0.16
- activity coefficient (279.94 K): 3.61 ± 0.16
- activity coefficient (300.03 K): 3.66 ± 0.16
- activity coefficient (320.02 K): 3.64 ± 0.16
- activity coefficient (340.1 K): 3.64 ± 0.16
Structure (SMILES): C=CC [propene] + CCCO
